Laboratory results from US20070015759A1, “Metasubstituted thiazolidinones, their manufacture and use as a drug” (priority 2004, published 2007).

Columns and labels:
[1] = target: T1, Recombinant human Plk-1 (6×His) (Homo sapiens, UniProt P53350); assay: PLK enzyme assay (33P-γ-ATP incorporation into biotin casein, SPA beads); format: biochemical; details: 0.5 μM ATP, 0.7 μM casein, 90 minutes at room temperature, read-out: Inhibition PLK-1 IC50
T1 construct: 6xHis; made in house; host or cells: Hi5 insect cells, baculovirus
T1 sequence (P53350 whole entry): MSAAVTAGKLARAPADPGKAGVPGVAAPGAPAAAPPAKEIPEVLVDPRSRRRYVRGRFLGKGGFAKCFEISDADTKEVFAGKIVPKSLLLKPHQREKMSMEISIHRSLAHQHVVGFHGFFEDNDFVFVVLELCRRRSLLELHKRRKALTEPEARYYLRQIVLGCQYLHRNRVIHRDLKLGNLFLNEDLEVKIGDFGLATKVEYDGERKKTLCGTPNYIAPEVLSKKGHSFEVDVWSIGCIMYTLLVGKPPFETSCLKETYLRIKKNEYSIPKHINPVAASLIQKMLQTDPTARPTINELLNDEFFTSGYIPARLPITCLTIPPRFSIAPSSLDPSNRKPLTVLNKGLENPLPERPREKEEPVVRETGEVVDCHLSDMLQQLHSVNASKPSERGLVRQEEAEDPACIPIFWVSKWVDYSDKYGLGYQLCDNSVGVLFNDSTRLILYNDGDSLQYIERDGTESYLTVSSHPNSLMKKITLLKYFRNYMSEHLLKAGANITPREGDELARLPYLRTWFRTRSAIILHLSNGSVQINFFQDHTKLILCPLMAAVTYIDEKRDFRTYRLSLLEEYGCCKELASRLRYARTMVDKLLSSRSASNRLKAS
Procedure: Recombinant human Plk-1 (6×His) was purified from insect cells (Hi5) infected with a baculovirus.
10 ng (recombinant created, purified) PLK enzyme is incubated for 90 minutes at room temperature with biotin casein and 33P-γ-ATP as a sub-stratum in a volume of 15 μl in 384 well Greiner Small Volume Microtiterplates (final concentration in buffer: 660 ng/ ml PLK; 0.7 μM Casein, 0.5 μM ATP incl. 400 nCi/ml 33P-γ-ATP; 10 mM MgCl2, 1 mM MnCl2; 0.01% NP40; 1 mM DTT, Protease inhibitors; 0.1 mM Na2VO3 in 50 mM HEPES pH 7.5). At the end of the reaction a 5 μl stop solution (500 μM ATP; 500 mM EDTA; 1% triton ×100; 100 mg/ ml streptavidin coated SPA Beads in PBS) was added. After the microtiter plate is closed with foil, the beads are sedimented through centrifugation (10 min., 1500 rpm). The fixing of the 33P-γ-ATP in casein was set as a measure of the enzyme activity by β-Counting.
Test substances were introduced in various concentrations (0 μM, and in the range of 0.01-30 μM). The final concentration of the dimethylsulfoxide solvent in all concentrations amounted to 1.5%.

[2] = test system: human MaTu breast tumor cells; assay: Proliferation assay (crystal violet staining); format: cell-based; details: 96 h, incubated for 4 days with test substance, read-out: Inhibition of tumor cell proliferation (MaTu) IC50
Procedure: Cultivated human MaTu breast tumor cells were spread on plates to a thickness of 5000 cells per measuring point in a 96-hole multititerplate in 200 μl of the appropriate growth medium. After 24 hours the cells of one plate (the zero-point plate) were stained with crystal violet (see below), while the medium of the other plates was replaced by fresh culture medium (200 μl), to which was added the test substances in various concentrations (0 μM and in the range of 0.01 to 30 μm; the final concentration of the dimethylsulfoxide solvent was 0.5%). The cells were incubated for 4 days in the presence of the test substances. The cell proliferation was determined by the staining of the cells with crystal violet. The cells were fixed by the addition of 20 μl per measuring point of an 11% glutaraldehyde solution for 15 minutes at room temperature. After the fixed cells were washed three times with water, the plates were dried at room temperature. The cells were stained by the addition of 100 μl per measuring point of a 0.1% crystal violet solution (pH set at pH3 through the addition of acetic acid). After the fixed cells were washed three times with water, the plates were dried at room temperature. The coloring was dissolved by the addition of 100 μl per measuring point of a 10% acetic acid solution. Extinction was determined photometrically at a wave length of 595 nm. The percentage change of the cell growth was calculated by normalizing the measured values at the extinction value of the zero-point plate (=0%) and the extinction of the untreated cells (0 μM) (=100%).

Row | SMILES | IC50 [1] [nM] | IC50 [2] [nM]
1 | CCn1c(=C(C#N)C(=O)NCC(F)(F)F)sc(=CNc2cccc(CCN3CCCC3)c2)c1=O (mixture of isomers) [Example 30, 2-Cyano-2-[3-ethyl-4-oxo-5-[1-[3-(2-pyrrolidin-1-yl-ethyl)-phenylamino]-meth-(E/Z)-ylidene]-thiazolidin-(2-(E or Z))-ylidene]-N-(2,2,2-trifluoro-ethyl)-acetamide] | 16 | 200
2 | CCn1c(=C(C#N)C(=O)NCC(F)(F)F)sc(=CNc2cccc(NC(=O)C(C)(C)C)n2)c1=O (mixture of isomers) [Example 41, 2-Cyano-2-[5-[1-[6-(2,2-dimethyl-propionylamino)-pyridin-2-ylamino]-meth-(E/Z)-ylidene]-3-ethyl-4-oxo-thiazolidin-(2-(E or Z))-ylidene]-N-(2,2,2-trifluoro-ethyl)-acetamide] | 20 | 830
3 | C#CCNC(=O)C(C#N)=c1sc(=CNc2ccc(OCCN(C)C)cc2)c(=O)n1CC [Comparison 307 from PCT/EP2004/ 012242, reference compound] | 71 | 1700
4 | CCn1c(=C(C#N)C(=O)NCC(F)F)sc(=CNc2ccc(OCCN(C)C)cc2)c1=O [Comparison 310 from PCT/EP2004/ 012242, reference compound] | 74 | 5600
5 | C#CCNC(=O)C(C#N)=c1sc(=CNc2ccc(C(=O)NCCN3CCCC3)c(NC(=O)C(C)(C)C)c2)c(=O)n1CC [Comparison 323 from PCT/EP2004/ 012242, reference compound] | 140 | 2500
6 | CCn1c(=C(C#N)C(=O)NCC(F)(F)F)sc(=CNc2ccc(C(=O)NCCN3CCCC3)c(NC(=O)C(C)(C)C)c2)c1=O [Comparison 326 from PCT/EP2004/ 012242, reference compound] | 73 | 1600
7 | CCn1c(=C(C#N)C(=O)NCC(F)(F)F)sc(=CNc2ccc(CCN3CCCC3)cc2)c1=O [Comparison 527 from PCT/EP2004/ 012242, reference compound] | – | 2800

Next, values leading:

Row | IC50 [1] [nM] | IC50 [2] [nM] | SMILES
8 | 150 | 780 | CCNC(=O)C(C#N)=c1sc(=CNc2cccc(NC(=O)CN3CCCC3)c2)c(=O)n1CC (mixture of isomers) [Example 55, 2-Cyano-N-ethyl-2-[3-ethyl-4-oxo-5-[1-[3-(2-pyrrolidin-1-yl-acetylamino)-phenylamino]-meth-(E/Z)-ylidene]-thiazolidin-(2-(E or Z))-ylidene]-acetamide]
9 | 100 | 650 | C#CCNC(=O)C(C#N)=c1sc(=CNc2ccc(F)c(NC(=O)C(C)(C)C)c2)c(=O)n1CC (mixture of isomers) [Example 63, 2-Cyano-2-[5-[1-[3-(2,2-dimethyl-propionylamino)-4-fluoro-phenylamino]-meth-(E/Z)-ylidene]-3-ethyl-4-oxo-thiazolidin-(2-(E or Z))-ylidene]-N-prop-2-ynyl-acetamide]
10 | 22 | 590 | C#CCNC(=O)C(C#N)=c1sc(=CNc2cccc(OCCN(C)C)c2)c(=O)n1CC (mixture of isomers) [Example 126, 2-Cyano-2-[5-[1-[3-(2-dimethylamino-ethoxy)-phenylamino]-meth-(E/Z)-ylidene]-3-ethyl-4-oxo-thiazolidin-(2Z or E)-ylidene]-N-prop-2-ynyl-acetamide]
11 | 24 | 330 | CCn1c(=C(C#N)C(=O)NCC(F)F)sc(=CNc2cccc(OCCN(C)C)c2)c1=O (mixture of isomers) [Example 127, 2-Cyano-N-(2,2-difluoro-ethyl)-2-[5-[1-[3-(2-dimethylamino-ethoxy)-phenylamino]-meth-(E/Z)-ylidene]-3-ethyl-4-oxo-thiazolidin-(2-(E or Z))-ylidene]-acetamide]
